Experimental findings from patent US20110144140A1, “PYRIDINYL-PYRIMIDINE DERIVATIVES USEFUL AS POTASSIUM CHANNEL MODULATING AGENTS” (priority 2006, published 2011) are described below.

Molecules are shown by their SMILES. Structures can show the parent of a compound that is named as a salt.

Data set [1] concerns the target T1, hSK3 channels (Homo sapiens, UniProt Q9UGI6).
T1 construct: expressed in transfected cells; host or cells: HEK293
As to the kind of experiment: whole-cell patch-clamp recording of ionic current through SK channels, subtype 3, in HEK293 cells. The settings on record: HEK293 cells expressing hSK3, baseline current at −75 mV, free Ca2+ 0.3-0.4 μM. The data set is classed as cell-based. How it is done: The ionic current through small-conductance Ca^2+-activated K^+ channels (SK channels, subtype 3) is recorded using the whole-cell configuration of the patch-clamp technique.
HEK293 tissue culture cells expressing hSK3 channels were grown in DMEM (Dulbecco's Modified Eagle Medium) supplemented with 10% FCS (foetal calf serum) at 37° C. in 5% CO2. At 60-80% confluency, cells were harvested by trypsin treatment and seeded on cover slips.
Experiments are carried out on one of several patch-clamp set-ups. Cells plated on coverslips are placed in a 15 μl perfusion chamber (flowrate ˜1 ml/min) mounted on an IMT-2 microscope. The microscopes are placed on vibration-free tables in grounded Faraday cages. All experiments are performed at room temperature (20-22° C.). […] Data are stored directly on the hard-disk and analysed by IGOR software (Wavemetrics, Lake Oswega, Oreg., USA).
The whole-cell configuration of the patch-clamp technique is applied. […] Cell capacitance is electronically compensated and the resistance between the pipette and the cell interior (the series resistance, Rs) is measured and compensated for. […]
The intracellular (pipette) solution contained: 154 mM KCl, 10 mM HEPES, 10 mM EGTA. Concentrations of CaCl2 and MgCl2 needed to obtain the desired free concentrations of Ca^2+ (0.3-0.4 μM, Mg^2+ always 1 mM) were calculated by EqCal software (Cambridge, UK) and added. […]
In general terms: The patch-clamp technique gives a direct electrical read-out from membranes.

T1 sequence (Q9UGI6 whole entry): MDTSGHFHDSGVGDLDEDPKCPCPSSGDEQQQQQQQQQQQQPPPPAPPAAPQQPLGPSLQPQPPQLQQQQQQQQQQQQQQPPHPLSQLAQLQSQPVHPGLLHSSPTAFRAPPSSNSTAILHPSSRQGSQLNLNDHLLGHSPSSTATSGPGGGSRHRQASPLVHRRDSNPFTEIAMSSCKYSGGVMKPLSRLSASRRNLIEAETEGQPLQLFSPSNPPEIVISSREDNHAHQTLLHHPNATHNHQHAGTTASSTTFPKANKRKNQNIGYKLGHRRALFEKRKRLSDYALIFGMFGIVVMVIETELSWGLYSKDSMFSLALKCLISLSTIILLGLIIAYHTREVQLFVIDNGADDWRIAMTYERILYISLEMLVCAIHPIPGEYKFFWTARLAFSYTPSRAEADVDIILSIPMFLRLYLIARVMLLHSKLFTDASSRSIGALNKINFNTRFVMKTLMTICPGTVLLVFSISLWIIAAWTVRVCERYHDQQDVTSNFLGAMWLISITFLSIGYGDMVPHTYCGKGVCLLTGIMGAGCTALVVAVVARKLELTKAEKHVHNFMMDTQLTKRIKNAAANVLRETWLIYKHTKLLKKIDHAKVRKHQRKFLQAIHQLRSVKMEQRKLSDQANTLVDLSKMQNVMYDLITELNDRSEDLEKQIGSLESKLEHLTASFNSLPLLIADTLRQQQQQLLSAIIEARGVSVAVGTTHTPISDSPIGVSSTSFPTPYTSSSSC

`Cc1cccc(-c2nc(C)cc(NC3CCCCC3)n2)n1` came in with a melting point of 59.6 to 65 °C.

Take `Cc1cc(Nc2ccc(Cl)cc2)nc(-c2cccc(Cl)n2)n1` (as salt: hydrochloride) [Compound 4A, (4-Chloro-phenyl)-[6-methyl-2-(6-chloro-pyridin-2-yl)-pyrimidin-4-yl]-amine]: the melting point was 239 °C.

On to `Cc1cc(Nc2ccc(Cl)cc2)nc(-c2cccc(Cl)n2)n1` [Compound 4A, (4-Chloro-phenyl)-[6-methyl-2-(6-chloro-pyridin-2-yl)-pyrimidin-4-yl]-amine], for which the “SC100 (Stimulating Concentration required for increasing the baseline current by 100%)” value in data set [1] came out at 0.3 µM.

The term melting point denotes the temperature, or range, at which the solid turns liquid.
